These results are taken from patent publication US9701685B2, “Spiropyrrolidines as MDM2 inhibitors” (HUDSON BIOPHARMA INC., priority 2014, dated 2017).

The target in assay [1] is GST-tag full length MDM2 (Homo sapiens (Human), UniProt Q00987). Briefly: MDM2-p53 TR-FRET Binding Assays. As to conditions: MDM2 / biotin p53 peptide. The source says: MDM2-p53 TR-FRET Binding Assays
Examples are listed in the following.
(TR-FRET usually uses a lanthanide donor and a delayed reading to cut background.)

Assay [2] deals with SJSA-1. Briefly: Cell proliferation inhibition (CCK-8) against SJSA-1. To be noted: Homo sapiens, SJSA-1, 120 h, SJSA-1 human osteosarcoma cells, 5 days. In kind it is cell-based. The procedure:
Cellular data of selected compounds against SW480 and SJSA-1 was conducted according to the following protocol.
Cells in the logarithmic growth phase were seeded into 96-well plates (Corning, 3599; 180 μL/well; 3000 cells/well for both SW480 and SJSA-1 cell lines) and cultured in an incubator (Thermo, 3111) for 24 h. Cells were then treated in triplicate by adding 20 μL/well solution containing different concentrations of the tested compounds in 5% CO2 at 37° C. for 5 days. After that, cells were treated for additional 4 h by adding 10 μL/well Cell Counting Kit-8 (CCK-8; DojinDo, CK04) solution. Finally, the absorbance was read at 450 nm with a microplate reader spectra-MAX190 (Molecular Devices, Sunnyvale, Calif.). The IC50 value was determined with SofeMax Pro, a software equipped in this reader. The cell proliferation inhibition rate was calculated as: proliferation inhibition (%)=[1-(A450 treated/A450 control)]×100%.
All the tested compounds could be dissolved in DMSO at 10^−2 M (as stock solution). […] The compounds were diluted at 9 3-fold serial concentrations beginning at the initial concentration of 10 μM (i.e., the highest final concentration to treat the cells). The detailed drug dilution protocol is: Add 5 μL stock solution (10^−2 M) into 495 μL medium, transfer 125 μL of the resulting solution (100 μM) into 250 μL medium, and repeat this till the 9th resulting concentration of 15.2 nM. Pipet 20 μL of each drug dilution into cell plates.

Chain of GST-tag full length MDM2 (Q00987 whole entry): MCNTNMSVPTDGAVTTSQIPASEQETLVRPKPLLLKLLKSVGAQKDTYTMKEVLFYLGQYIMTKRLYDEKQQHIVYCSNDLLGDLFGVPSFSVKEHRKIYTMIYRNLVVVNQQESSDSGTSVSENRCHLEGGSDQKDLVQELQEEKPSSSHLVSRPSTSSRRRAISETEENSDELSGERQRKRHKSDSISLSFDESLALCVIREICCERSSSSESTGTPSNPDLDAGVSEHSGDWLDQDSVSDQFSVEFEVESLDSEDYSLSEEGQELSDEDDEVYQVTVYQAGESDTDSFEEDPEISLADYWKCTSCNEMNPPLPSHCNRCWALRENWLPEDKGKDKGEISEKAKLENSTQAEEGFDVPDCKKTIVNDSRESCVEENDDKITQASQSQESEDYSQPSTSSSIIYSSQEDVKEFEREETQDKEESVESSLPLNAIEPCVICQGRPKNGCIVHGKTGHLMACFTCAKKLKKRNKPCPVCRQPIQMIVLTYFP

Take `COc1cc(C(=O)O)ccc1NC(=O)[C@@H]1N[C@@H](C[C@H](C)C(F)(F)F)[C@@]2(C(=O)Nc3cc(Cl)ccc32)[C@H]1c1cccc(Cl)c1F` [Example 65, 4-[[(2′R,3R,3′S,5′S)-6-chloro-3′-(3-chloro-2-fluoro-phenyl)-2-oxo-5′-[(2S)-3,3,3-trifluoro-2-methyl-propyl]spiro[indoline-3,4′-pyrrolidine]-2′-carbonyl]amino]-3-methoxy-benzoic acid]: the IC50 (in general, the midpoint of a concentration-inhibition curve) in assay [1] was not above 3.6 nM; in assay [2], not above 20 nM.
Turning to `COc1cc(C(N)=O)ccc1NC(=O)[C@@H]1N[C@@H](C[C@@H](C)C(F)(F)F)[C@@]2(C(=O)Nc3cc(Cl)ccc32)[C@H]1c1cccc(Cl)c1F` (racemic) [Example 13, (2′R,3R,3′S,5′S)-N-(4-carbamoyl-2-methoxy-phenyl)-6-chloro-3′-(3-chloro-2-fluoro-phenyl)-2-oxo-5′-[(2R)-3,3,3-trifluoro-2-methyl-propyl]spiro[indoline-3,4′-pyrrolidine]-2′-carboxamide], the half-maximal inhibitory concentration (IC50) in assay [1] is not above 7.2 nM; in assay [2], not above 71 nM.
Regarding `COc1cc(C(=O)O)ccc1NC(=O)[C@@H]1N[C@@H](CC2(CF)CC2)C2(C(=O)Nc3cc(Cl)ccc32)[C@H]1c1cccc(Cl)c1F` (some centres unmarked) [Example 74, 4-{[6-chloro-4′-(3-chloro-2-fluoro-phenyl)-2′-(1-fluoromethyl-cyclopropylmethyl)-2-oxo-1,2-dihydro-spiro[indole-3,3′-pyrrolidin]e-5′-carbonyl]-amino}-3-methoxy-benzoic acid], the IC50 in assay [1] is not above 7.2 nM; in assay [2], not above 20 nM.
On to `COc1cc(C(N)=O)ccc1NC(=O)[C@@H]1N[C@@H](CC(C)(C)CF)[C@@]2(C(=O)Nc3cc(Cl)ccc32)C1c1cccc(Cl)c1F` (single isomer, unassigned) [Example 22], for which the results for the IC50 in assay [1] and in assay [2] were not above 3.6 nM and not above 20 nM, respectively.
`COc1cc(C(N)=O)ccc1NC(=O)[C@@H]1N[C@@H](CC2(CF)CC2)[C@@]2(C(=O)Nc3cc(Cl)ccc32)[C@H]1c1cccc(Cl)c1F` [Example 77, (2′R,3R,3′S,5′S)-N-(4-carbamoyl-2-methoxy-phenyl)-6-chloro-3′-(3-chloro-2-fluoro-phenyl)-5′-[[1-(fluoromethyl)cyclopropyl]methyl]-2-oxo-spiro[indoline-3,4′-pyrrolidine]-2′-carboxamide]: the IC50 in assay [1] was not above 7.2 nM; in assay [2] it was not above 20 nM.
With `COC(=O)c1ccc(NC(=O)[C@@H]2N[C@@H](CC3(CF)CC3)C3(C(=O)Nc4cc(Cl)ccc43)[C@H]2c2cccc(Cl)c2F)c(OC)c1` (some centres unmarked) [Example 73, 4-{[6-chloro-4′-(3-chloro-2-fluoro-phenyl)-2′-(1-fluoromethyl-cyclopropylmethyl)-2-oxo-1,2-dihydro-spiro[indole-3,3′-pyrrolidin]e-5′-carbonyl]-amino}-3-methoxy-benzoic acid methyl ester], the IC50 in assay [1] is not above 7.2 nM.
`COc1cc(C(N)=O)ccc1NC(=O)[C@@H]1N[C@@H](C[C@@H](C)C(F)(F)F)[C@@]2(C(=O)Nc3cc(Cl)ccc32)[C@H]1c1cccc(Cl)c1F` [Example 28, (2′R,3R,3′S,5′S)-N-(4-carbamoyl-2-methoxy-phenyl)-6-chloro-3′-(3-chloro-2-fluoro-phenyl)-2-oxo-5′-[(2R)-3,3,3-trifluoro-2-methyl-propyl]spiro[indoline-3,4′-pyrrolidine]-2′-carboxamide]: the IC50 in assay [1] is not above 3.6 nM; in assay [2], not above 20 nM.
As for `COc1cc(C(=O)O)ccc1NC(=O)[C@@H]1N[C@@H](C[C@@H](C)C(F)(F)F)[C@@]2(C(=O)Nc3cc(Cl)ccc32)[C@H]1c1cccc(Cl)c1F` (racemic) [Example 11, 4-[[(2′R,3R,3′S,5′S)-6-chloro-3′-(3-chloro-2-fluoro-phenyl)-2-oxo-5′-[(2R)-3,3,3-trifluoro-2-methyl-propyl]spiro[indoline-3,4′-pyrrolidine]-2′-carbonyl]amino]-3-methoxy-benzoic acid], the IC50 is not above 7.2 nM in assay [1] and not above 71 nM in assay [2].
For the molecule `COc1cc(C(N)=O)ccc1NC(=O)[C@@H]1N[C@@H](CC2(CF)CC2)C2(C(=O)Nc3cc(Cl)ccc32)[C@H]1c1cccc(Cl)c1F` (some centres unmarked) [Example 75, 6-chloro-4′-(3-chloro-2-fluoro-phenyl)-2′-(1-fluoromethyl-cyclopropylmethyl)-2-oxo-1,2-dihydro-spiro[indole-3,3′-pyrrolidine]-5-carboxylic acid (4-carbamoyl-2-methoxy-phenyl)-amide], the results for the half-maximal inhibitory concentration (IC50) in assay [1] and in assay [2] were not above 7.2 nM and not above 20 nM, respectively.
Regarding `COc1cc(C(=O)O)ccc1NC(=O)[C@@H]1N[C@@H](CC(C)(C)CF)[C@@]2(C(=O)Nc3cc(Cl)ccc32)C1c1cccc(Cl)c1F` (mixture of isomers) [Example 19, 4-[(2′R,3R,3′S,5′S)-6-chloro-3′-(3-chloro-2-fluoro-phenyl)-5′-(3-fluoro-2,2-dimethyl-propyl)-2-oxo-spiro[indoline-3,4′-pyrrolidine]-2′-carbonyl]amino-3-methoxy-benzoic acid], the IC50 is not above 3.6 nM in assay [1] and not above 71 nM in assay [2].
For the molecule `COc1cc(C(=O)O)ccc1NC(=O)[C@@H]1N[C@@H](C[C@@H](C)C(F)(F)F)[C@@]2(C(=O)Nc3cc(Cl)ccc32)[C@H]1c1cccc(Cl)c1F` [Example 27, 4-[[(2′R,3R,3′S,5′S)-6-chloro-3′-(3-chloro-2-fluoro-phenyl)-2-oxo-5′-[(2R)-3,3,3-trifluoro-2-methyl-propyl]spiro[indoline-3,4′-pyrrolidine]-2′-carbonyl]amino]-3-methoxy-benzoic acid], the IC50 was not above 3.6 nM in assay [1] and not above 20 nM in assay [2].
Consider `COc1cc(C(=O)O)ccc1NC(=O)[C@@H]1N[C@@H](CC(C)(C)CF)[C@@]2(C(=O)Nc3cc(Cl)ccc32)[C@H]1c1cccc(Cl)c1F` [Example 21, 4-[(2′R,3R,3′S,5′S)-6-chloro-3′-(3-chloro-2-fluoro-phenyl)-5′-(3-fluoro-2,2-dimethyl-propyl)-2-oxo-spiro[indoline-3,4′-pyrrolidine]-2′-carbonyl]amino-3-methoxy-benzoic acid], for which the IC50 was not above 3.6 nM in assay [1] and not above 20 nM in assay [2].
With `CCOC(=O)c1ccc(NC(=O)[C@@H]2N[C@@H](C[C@H](C)C(F)(F)F)[C@@]3(C(=O)Nc4cc(Cl)ccc43)[C@H]2c2cccc(Cl)c2F)c(OC)c1` [Example 9b, ethyl 4-[[(2′R,3R,3′S,5′S)-6-chloro-3′-(3-chloro-2-fluoro-phenyl)-2-oxo-5′-[(2S)-3,3,3-trifluoro-2-methyl-propyl]spiro[indoline-3,4′-pyrrolidine]-2′-carbonyl]amino]-3-methoxy-benzoate], the concentration for half-maximal inhibition (IC50) in assay [2] was in the range of 71 to 550 nM.
With `COc1cc(C(=O)O)ccc1NC(=O)[C@@H]1N[C@@H](C[C@H](C)C(F)(F)F)[C@@]2(C(=O)Nc3cc(Cl)ccc32)[C@H]1c1cccc(Cl)c1F` (racemic) [Example 10, 4-[[(2′R,3R,3′S,5′S)-6-chloro-3′-(3-chloro-2-fluoro-phenyl)-2-oxo-5′-[(2S)-3,3,3-trifluoro-2-methyl-propyl]spiro[indoline-3,4′-pyrrolidine]-2′-carbonyl]amino]-3-methoxy-benzoic acid], the results for the half-maximal inhibitory concentration (IC50) in assay [1] and in assay [2] were not above 7.2 nM and not above 71 nM, respectively.
